Data: patent US10314843B2, “Combinations for the treatment of neoplasms using quiescent cell targeting and inhibitors of mitosis” (Felicitex Therapeutics, Inc., priority 2016, dated 2019)

Key:
Format in all cases: cell-based
[1] = tested on: HCC827 cells; experiment: CellTiter-Glo cell viability assay, HCC827 cells; details: Homo sapiens
Method: (§1) For viability analysis, cells were seeded into 96-well plates at 2×10^3-6×10^3 cells/well; the plated number of cells depended on cell size and rate of proliferation aiming for approximately 50% confluency. After seeding, the cells were allowed to attach for 24 hours incubated at 37° C. in a humidified 5% CO2 atmosphere.
(§2) The treatments were performed using at least 6 different concentrations of a compound in 1:3 serial dilutions in DMSO such that the DMSO concentration in the cell medium was <1%. The cell cultures were incubated for an additional 96 hours in 5% CO2 incubator at 37° C. Treatments were performed in triplicate. Results were analyzed by CellTiter-Glo™ Luminescent Cell Viability Assay (Promega, cat. #G7571) according to the manufacturer's instructions using Spectra MAX Gemini Spectrophotometer (Molecular Devices).

[2] = tested on: SK-OV-3 cells; experiment: CellTiter-Glo cell viability assay, SK-OV-3 cells; details: Homo sapiens, SK-OV-3, SK-OV-3 cells
From the text: (§3) The following cell lines were obtained from ATCC and cultured according to the ATCC recommendations: DMS273—small cell lung cancer cell line; H1975—non-small cell lung cancer cell line harboring L858R and T790M mutations in EGFR TK; A549—a non-small cell lung cancer cell line with wild type EGFR; LNCap—prostate cancer cell line; SW620—colon cancer cell line; MiaPaCa2—pancreatic cancer cell line; PANC1—pancreatic cancer cell line; OVCAR3—ovarian cancer cell line; SK-OV-3—ovarian cancer cell line.
as §1, §2

[3] = tested on: A549 cells; experiment: CellTiter-Glo cell viability assay, A549 cells; details: Homo sapiens
From the text: as §3, §1, §2

[4] = tested on: SW620 cells; experiment: CellTiter-Glo cell viability assay, SW620 cells; details: Homo sapiens, SW-620, SW620 cells
From the text: as §3, §1, §2

[5] = tested on: OVCAR3 cells; experiment: CellTiter-Glo cell viability assay, OVCAR3 cells; details: Homo sapiens, OVCAR-3, OVCAR3 cells
From the text: as §3, §1, §2

[6] = tested on: DMS273 cells; experiment: CellTiter-Glo cell viability assay, DMS273 cells; details: Homo sapiens, DMS-273, DMS273 cells
From the text: as §3, §1, §2

[7] = tested on: PANC1 cells; experiment: CellTiter-Glo cell viability assay, PANC1 cells; details: Homo sapiens, PANC-1, PANC1 cells
From the text: as §3, §1, §2

[8] = tested on: H1975 cells; experiment: CellTiter-Glo cell viability assay, H1975 cells; details: Homo sapiens, NCI-H1975, H1975 cells
From the text: as §3, §1, §2

[9] = tested on: SW620 cells; experiment: FACS cell cycle distribution (Acridine Orange), SW620 cells; details: paclitaxel alone (2 nM), FBS+ media, 24 hours
From the text: as §3
(§4) Cell cultures were seeded into 6-well plates at 3×10^5-6×10^5 cells/well; the plated number of cells depended on cell size and rate of proliferation, aiming for approximately 50% confluency. After seeding, the cells were allowed to attach for 24 hours while incubated at 37° C. in a humidified 5% CO2 atmosphere, and then treated with compounds for desired amount of time (usually 24 hours) incubating under same conditions. Then the cells were harvested by trypsinization, pooled with the floating cells, washed in PBS, and fixed in 70% ice-cold ethanol overnight. For Acridine Orange (AO) staining, fixed cells were washed once with ice-cold PBS, re-suspended in 100 μL PBS, followed by addition of 200 μL of permeabilizing solution and 600 μL AO staining solution. The measurements were performed with Guava easyCyte HT flow cytometer (EMD Millipore) using the blue laser for excitation at 488 nm, monitoring emission of the AO-DNA complex at 526 nm and AO-RNA complex at 650 nm. The complete protocol and composition of buffers are described in the literature (Darzynkiewicz Z, Juan G, and Srour E F (2004) Differential Staining of DNA and RNA (2004). Current Protocols in Cytometry, Chapter 7:Unit 7.3).

[10] = tested on: DMS273 cells; experiment: FACS cell cycle distribution (Acridine Orange), DMS273 cells; details: mitotic inhibitor alone, FBS+ media, 24 hours (2.7 nM paclitaxel; 1.1 nM vincristine; 8.1 nM vinorelbine)
From the text: as §3, §4

[11] = tested on: LNCap cells; experiment: CellTiter-Glo cell viability assay, LNCap cells; details: Homo sapiens
From the text: as §3, §1, §2

## CC(=O)O[C@@]12CO[C@@H]1C[C@H](O)[C@@]1(C)C(=O)[C@H](O)C3=C(C)[C@@H](OC(=O)[C@H](O)[C@@H](NC(=O)OC(C)(C)C)c4ccccc4)C[C@@](O)([C@@H](OC(=O)c4ccccc4)[C@H]21)C3(C)C [docetaxel]
[1]; Compound I-7 not present
  EC50: 1.8 nM
[1]; Compound I-7 present at 2 μM
  EC50: 0.6 nM
[1]; Compound I-7 present at 4 μM
  EC50: 0.03 nM
[2]; Compound I-7 not present
  EC50: 2.5 nM
[2]; Compound I-7 present at 2 μM
  EC50: 1.5 nM
[2]; Compound I-7 present at 4 μM
  EC50: 0.3 nM
[3]; Compound I-7 not present
  EC50: 1.4 nM
[3]; Compound I-7 present at 2 μM
  EC50: 0.6 nM
[3]; Compound I-7 present at 4 μM
  EC50: 0.1 nM
[4]; Compound I-5 not present
  EC50: 2.85 nM
[4]; Compound I-5 present at 2 μM
  EC50: 0.69 nM
[4]; Compound I-5 present at 4 μM
  EC50: < 0.015 nM
[5]; Compound I-7 not present
  EC50: 0.85 nM
[5]; Compound I-7 present at 2 μM
  EC50: 0.52 nM
[5]; Compound I-7 present at 4 μM
  EC50: < 0.04 nM
[6]; Compound I-7 not present
  EC50: 0.64 nM
[6]; Compound I-7 present at 2 μM
  EC50: 0.38 nM
[6]; Compound I-7 present at 4 μM
  EC50: 0.14 nM

## C[C@@H](Oc1cc(-n2cnc3ccc(CN4CCN(C)CC4)cc32)sc1C(N)=O)c1ccccc1C(F)(F)F [GSK461364]
[3]; Compound I-7 not present
  EC50: 1200 nM
[3]; Compound I-7 present at 3 μM
  EC50: 500 nM
[3]; Compound I-7 present at 6 μM
  EC50: 200 nM
[7]; Compound I-7 not present
  EC50: 500 nM
[7]; Compound I-7 present at 2 μM
  EC50: 300 nM
[7]; Compound I-7 present at 4 μM
  EC50: 200 nM
[8]; Compound I-7 not present
  EC50: 1900 nM
[8]; Compound I-7 present at 2 μM
  EC50: 970 nM
[8]; Compound I-7 present at 4 μM
  EC50: 580 nM
[6]; Compound I-7 not present
  EC50: 430 nM
[6]; Compound I-7 present at 2 μM
  EC50: 240 nM
[6]; Compound I-7 present at 4 μM
  EC50: 120 nM

## CC(=O)O[C@H]1C(=O)[C@@]2(C)[C@H]([C@H](OC(=O)c3ccccc3)[C@]3(O)C[C@H](OC(=O)[C@H](O)[C@@H](NC(=O)c4ccccc4)c4ccccc4)C(C)=C1C3(C)C)[C@]1(OC(C)=O)CO[C@@H]1C[C@@H]2O [paclitaxel]
[9]
  pharmacological quiescence (fraction of cells in G0 phase): does not result in pharmacological quiescence
[1]; Compound I-7 not present
  EC50: 4.2 nM
[1]; Compound I-7 present at 3 μM
  EC50: 2.5 nM
[1]; Compound I-7 present at 6 μM
  EC50: 0.6 nM
[2]; Compound I-7 not present
  EC50: 9.7 nM
[2]; Compound I-7 present at 2 μM
  EC50: 9.4 nM
[2]; Compound I-7 present at 4 μM
  EC50: 4.8 nM
[2]; Compound I-7 present at 8 μM
  EC50: 4.7 nM
[2]; Compound I-7 present at 10 μM
  EC50: 5.2 nM
[3]; Compound I-7 not present
  EC50: 4.8 nM
[3]; Compound I-7 present at 3 μM
  EC50: 2.5 nM
[3]; Compound I-7 present at 6 μM
  EC50: 0.7 nM
[4]; Compound I-5 not present
  EC50: 8.1 nM
[4]; Compound I-5 present at 2 μM
  EC50: 2.3 nM
[4]; Compound I-5 present at 4 μM
  EC50: 0.2 nM
[5]; Compound I-7 not present
  EC50: 3.3 nM
[5]; Compound I-7 present at 3 μM
  EC50: 2.8 nM
[5]; Compound I-7 present at 6 μM
  EC50: 1.7 nM
[6]; Compound I-7 not present
  EC50: 2.7 nM
[6]; Compound I-7 present at 2 μM
  EC50: 1.9 nM
[6]; Compound I-7 present at 4 μM
  EC50: 0.9 nM
[10]
  pharmacological quiescence (fraction of cells in G0 phase): does not result in pharmacological quiescence
[11]; Compound I-5 not present
  EC50: 3.2 nM
[11]; Compound I-5 present at 2 μM
  EC50: 2.1 nM
[11]; Compound I-5 present at 4 μM
  EC50: 0.9 nM

## CC[C@@H]1C(=O)N(C)c2cnc(Nc3ccc(C(=O)NC4CCN(C)CC4)cc3OC)nc2N1C1CCCC1 [BI2536]
[3]; Compound I-7 not present
  EC50: 6.2 nM
[3]; Compound I-7 present at 3 μM
  EC50: 4.1 nM
[3]; Compound I-7 present at 6 μM
  EC50: 1.7 nM
[7]; Compound I-7 not present
  EC50: 7.3 nM
[7]; Compound I-7 present at 2 μM
  EC50: 4.4 nM
[7]; Compound I-7 present at 4 μM
  EC50: 2.5 nM
[8]; Compound I-7 not present
  EC50: 46.3 nM
[8]; Compound I-7 present at 2 μM
  EC50: 17.3 nM
[8]; Compound I-7 present at 4 μM
  EC50: < 0.04 nM
[6]; Compound I-7 not present
  EC50: 6.2 nM
[6]; Compound I-7 present at 2 μM
  EC50: 4.1 nM
[6]; Compound I-7 present at 4 μM
  EC50: 1.7 nM

## CCC1=C[C@@H]2CN(C1)Cc1c([nH]c3ccccc13)[C@@](C(=O)OC)(c1cc3c(cc1OC)N(C)[C@H]1[C@@](O)(C(=O)OC)[C@H](OC(C)=O)[C@]4(CC)C=CCN5CC[C@]31[C@@H]54)C2 [vinorelbine]
[2]; Compound I-7 not present
  EC50: 15.1 nM
[2]; Compound I-7 present at 2 μM
  EC50: 10.1 nM
[2]; Compound I-7 present at 4 μM
  EC50: 4.7 nM
[3]; Compound I-7 not present
  EC50: 27 nM
[3]; Compound I-7 present at 2 μM
  EC50: 16 nM
[3]; Compound I-7 present at 4 μM
  EC50: 6 nM
[5]; Compound I-7 not present
  EC50: 2.4 nM
[5]; Compound I-7 present at 1 μM
  EC50: 2.4 nM
[5]; Compound I-7 present at 3 μM
  EC50: 0.1 nM
[8]; Compound I-5 not present
  EC50: 9.5 nM
[8]; Compound I-5 present at 2 μM
  EC50: 5.2 nM
[8]; Compound I-5 present at 4 μM
  EC50: 2.1 nM
[6]; Compound I-5 not present
  EC50: 1.1 nM
[6]; Compound I-5 present at 2 μM
  EC50: 0.4 nM
[6]; Compound I-5 present at 4 μM
  EC50: < 0.04 nM
[10]
  pharmacological quiescence (fraction of cells in G0 phase): does not result in pharmacological quiescence

## CC[C@]1(O)C[C@H]2CN(CCc3c([nH]c4ccccc34)[C@@](C(=O)OC)(c3cc4c(cc3OC)N(C=O)[C@H]3[C@@](O)(C(=O)OC)[C@H](OC(C)=O)[C@]5(CC)C=CCN6CC[C@]43[C@@H]65)C2)C1 [vincristine]
[2]; Compound I-7 not present
  EC50: 8.7 nM
[2]; Compound I-7 present at 4 μM
  EC50: 2.1 nM
[2]; Compound I-7 present at 8 μM
  EC50: 1 nM
[5]; Compound I-7 not present
  EC50: 1.2 nM
[5]; Compound I-7 present at 2 μM
  EC50: 0.8 nM
[5]; Compound I-7 present at 4 μM
  EC50: 0.1 nM
[8]; Compound I-5 not present
  EC50: 1.5 nM
[8]; Compound I-5 present at 2 μM
  EC50: 0.85 nM
[8]; Compound I-5 present at 4 μM
  EC50: 0.35 nM
[6]; Compound I-5 not present
  EC50: 1.1 nM
[6]; Compound I-5 present at 2 μM
  EC50: 0.4 nM
[6]; Compound I-5 present at 4 μM
  EC50: < 0.04 nM
[10]
  pharmacological quiescence (fraction of cells in G0 phase): does not result in pharmacological quiescence
